{
  "source": "paper PMC6272579",
  "about": "“A Three-Enzyme-System to Degrade Curcumin to Natural Vanillin” (Molecules, 2015)",
  "target": "T1, CAL (Moesziomyces antarcticus, UniProt P41365)",
  "T1 construct": "immobilised commercial lipase Novozyme_435 (known to be lipase B)",
  "T1 sequence (P41365 26-342)": "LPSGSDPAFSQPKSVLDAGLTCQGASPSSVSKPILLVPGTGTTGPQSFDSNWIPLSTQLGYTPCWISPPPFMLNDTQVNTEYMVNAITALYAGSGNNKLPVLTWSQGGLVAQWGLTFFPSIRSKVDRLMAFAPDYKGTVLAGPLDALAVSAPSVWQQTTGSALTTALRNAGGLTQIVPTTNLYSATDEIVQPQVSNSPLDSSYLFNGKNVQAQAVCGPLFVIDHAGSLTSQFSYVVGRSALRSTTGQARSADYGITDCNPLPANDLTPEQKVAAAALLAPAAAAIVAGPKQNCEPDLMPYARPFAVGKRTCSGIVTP",
  "test": "lipase-catalysed acetylation, LC-MS",
  "assay_type": "biochemical",
  "details": "immobilised enzyme; ethyl acetate/toluene 10:90, 4% acetate buffer pH 6, 40 °C; acyl donor geranyl acetate 1:50; acyl donor to curcumin",
  "data": [
    {"smiles": "CC(=O)OC/C=C(\\C)CCC=C(C)C", "note": "[geranyl acetate]", "values": [
      {"measurement": "lipase-catalysed acetylation, LC-MS", "result": "using geranyl acetate as the acyl donor"}
    ]}
  ]
}
